# Data taken from US6495567B1, “Triaryl methane compounds and their use in the treatment of diarrhea and scours” (Beth Israel Deaconess Medical Center, priority 1996, dated 2002).
# Read-outs that look alike come from different tables or passages of the source.
# Legend:
# T84 cells = test: Electrogenic Cl- secretion (short circuit current, Isc) in confluent T84 monolayers; assay type: cell-based, human
# basolateral K+ channels = test: Basolateral K+ conductance in T84 monolayers permeabilized apically with amphotericin B; assay type: cell-based, human
# Method: Selective mebrane Permeabilization and Measurement of Potassium Conductance of the Basolateral Membrane. The basolateral potassium conductance was measured using the technique developed by Dawson and co-workers. A potassium gradient (mucosal to serosal) was first established across the monolayer using asymmetric mucosal and serosal buffers containing K^+ as the sole permeant ion. The addition of amphotericin B (20 μM) to the mucosal reservoir forms conductive pores in the apical membrane, and thus removes all resistance to transepithelial potassium movement across this membrane. Thus, under the conditions of the experiment, in which the monolayer is short circuited (i.e., voltage-clamped at zero potential) and the transepithehal potassium gradient is constant, the amphotericin-dependent Isc becomes a measure of the rate of the transepithelial potassium flux across basolateral membranes. Changes in short circuit current (Isc), then represent changes in basolateral K^+ conductances (gK). Isc and K^+ conductances were measured using calomel electrodes, 3M KCI-agar bridges, and a voltage clamp (University of Iowa, Iowa City). To generate a voltage-current channel relationships, currents were elicited by 1 sec test potentials from −80 to +80 in 10 mV increments in the asymmetrical high K^+ gluconate solution.
# Calculation of Basolateral Membrane K^+ Permeability: Membrane Permeabilities were Calculated According to the Formula:
# ^PK=(cm/s)=^JK(mM/cm^2·s)/Δ[K^+](mM/cm^3)
# where Δ[K^+] is equal to the difference in K^+ concentration (135 mM) between the asymmetric apical and basolateral bathing solutions. Maximal Isc values were converted into K^+ fluxes by dividing by the Faraday constant F (96,500 coulombs/mol) as previously described (Huflejt et al., J. Clin. Invest. 93: 1900-1910 (1994)).
# Basolateral K+ transport was examined in T84 monolayers permeabilized apically by pretreatment with amphotericin B. Apical and basolateral buffers contained K+ as the sole permeant ion. All studies were performed with a 135 mM basolaterally directed K+ gradient. This method has been utilized previously to examine both Cl— and K+ transport in T84 cells and HT29-Cl.16E cells. Briefly, ion conductances in the luminal or basolateral membranes of confluent T84 cell monolayers can be assessed separately by selectively permeabilizing the apical or basolateral membrane using the ionophore amphotericin B. This artificially removes all electrical resistance to ion transport across the plasma membrane containing pores formed by amphotericin B. As a result, the intact contralateral plasma membrane becomes rate limiting for transepithelial ion transport. Agonist-dependent changes in ion conductances can be assessed directly either as transepithelial short circuit current (Isc) in the presence of established ion gradients, or as transepithelial conductance (G) in the presence of established transepithelial potentials.
# rabbit colonic mucosa = test: Ussing chamber studies using rabbit colonic mucosa; conditions: clotrimazole 30 μM; forskolin 10 μM
# Method: 4 male, New Zealand rabbits (2.5 kg) were anesthetized by an intravenous injection of pentobarbital (0.5 ml/kg). A 15 cm length of distal colon was removed and opened longitudinally. […] The volume of fluid on each side of the mucosa was 7 ml.
# Potential difference and Isc were monitored continuously and registered every 10 minutes.
# [1] = system: intestinal fluid secretion induced by cholera toxin; assay type: in vivo, Balb/C mice
# [2] = system: basolateral NaK2Cl cotransporters; test: Bumetanide-sensitive 86Rb uptake in T84 monolayers; conditions: 33 μM for 30 min
# [3] = system: basolateral NaK2Cl cotransporters
# [4] = system: apical membrane Cl- channels; test: 125I efflux from T84 monolayers; assay type: cell-based, human
# Method: (§1) After four baseline samples were obtained, the cells were treated (at t=8 minutes) with vasoactive intestinal peptide (VIP, […]) or thapsigargin (5 μM) to stimulate Cl— secretion, and an additional 15 timed samples were obtained. Finally, the cell monolayer was rinsed, cut with its support from the polystyrene ring, and the residual cell-associated radioactivity was determined. Monolayers were maintained at 37° C. in room air throughout the study. ^125I was counted by gamma counting and normalized to percent total uptake as previously described (Venglarik, et al, Am. J. Physiol. (Cell Physiol. 28):C358-C364 (1990).
# basolateral K+ channel = test: 86Rb efflux from T84 monolayers (K+ channel activity); assay type: cell-based, human
# Method: as §1, with “Cl^−” for “Cl—”, “^86Rb” for “^125I”, “scintillation” for “gamma”
# [5] = system: apical membrane Cl- channels; test: Apical Cl- conductance in T84 monolayers permeabilized basolaterally with amphotericin B; assay type: cell-based, human; conditions: symmetrical Cl- 142 mM; forskolin 10 μM
# [6] = forskolin 10 μM, carbachol 100 μM
# [7] = 33 μM, final 30 minutes of preincubation
compound,measurement,setting,value
OC(c1ccccc1)(c1ccccc1)c1ccccc1Cl [2-chlorophenyl-bis-phenyl methanol],Inhibition of cAMP and Ca++ elicited chloride secretion,T84 cells; T84 cells,effective at inhibiting chloride secretion
same,Inhibition of time course of K+ transport after forskolin and carbachol,basolateral K+ channels; [6],Nearly identical results
[Ba+2].[Cl-].[Cl-] [BaCl2],Inhibition of Cl- secretory response (Isc) to Ca++-dependent agonist carbachol,T84 cells,no apparent affect
same,Inhibition of Cl- secretory response (Isc) to cAMP mediated agonist VIP,T84 cells,strongly inhibited
same,Effect on K+ transport induced by subsequent addition of carbachol,"basolateral K+ channels; carbachol 100 μM, same monolayers, BaCl2 3 mM",no detectable effect
same,Inhibition of cAMP-sensitive IK elicited by forskolin,"basolateral K+ channels; forskolin 10 μM, BaCl2 3 mM basolateral",greater than 70%
C[C@@H]1[C@H](O)[C@@H](C)/C=C/C=C/C=C/C=C/C=C/C=C/C=C/[C@H](O[C@@H]2O[C@H](C)[C@@H](O)[C@H](N)[C@@H]2O)C[C@@H]2O[C@](O)(C[C@@H](O)C[C@@H](O)[C@H](O)CC[C@@H](O)C[C@@H](O)CC(=O)O[C@H]1C)C[C@H](O)[C@H]2C(=O)O [amphotericin B],Increase in conductance on initial permeabilization,basolateral K+ channels; amphotericin B apical,49±19%
C[N+](C)(C)CCOC(N)=O [carbachol],"Carbachol-induced IscK, carbachol added alone",basolateral K+ channels; apically permeabilized monolayers,111.7±7.4 μA/cm^2
same,"Carbachol-induced IscK, carbachol added after forskolin","basolateral K+ channels; apically permeabilized monolayers, forskolin 10 μM",180.7±15.7 μA/cm^2
Clc1ccccc1C(c1ccccc1)(c1ccccc1)n1ccnc1 [clotrimazole],Inhibition of time course of forskolin induced Isc,rabbit colonic mucosa,inhibited strongly
same,Reduction of intestinal fluid secretion induced by cholera toxin,[1]; 5 hours,86%
same,Effect on intestinal secretion in the absence of cholera toxin,"[1]; mouse, in vivo",no effect
same,Reduction of total amount of 86Rb uptake,"[2]; VIP, mean±SEM, n=6",53.6±15.8%
same,Effect on bumetanide-sensitive fractional component of 86Rb uptake,[2]; bumetanide 10 μM,no effect
same,IC50,"T84 cells; Homo sapiens, T84, read-out: IC50 for inhibition of secretory response to E. Coli heat-stabile toxin",15 µM
same,Inhibition of cAMP and Ca++ elicited chloride secretion,T84 cells; T84 cells,most potent inhibitor tested
same,Inhibition of Cl- secretory response (Isc) to cAMP mediated agonist VIP,"T84 cells; T84 cells, VIP 5 nM, BaCl 3 mM, charybdotoxin 100 nM",inhibited
same,Inhibition of Cl- secretory response (Isc) to Ca++-dependent agonist carbachol,"T84 cells; T84 cells, carbachol 100 mM, BaCl 3 mM, charybdotoxin 100 nM",inhibited
same,"Apparent potency of inhibition at a fixed time point, basolateral versus apical application",T84 cells; T84 monolayers,greater when applied basolaterally than apically
same,Inhibition with basolateral application alone compared with both sides of the monolayer,T84 cells; T84 monolayers,almost as effective as incubation on both sides
same,Reversibility of inhibition of Cl- secretion,"T84 cells; after 60 min recovery in the presence of 0.01 mg/ml bovine serum albumin, n=4",96±2%
same,Potentiation of Cl- secretory responses to either agonist at low doses,T84 cells; low doses (=10^-7 or less),5-10%
same,Inhibition of secretory response to agonists of the cAMP signalling cascade,"T84 cells; preincubation 33 μM, 5 μM VIP, 10 μM forskolin or 3 mM 8Br-cAMP",inhibited
same,Inhibition of Cl- secretory response to Ca++-dependent agonists,"T84 cells; pretreatment 33 μM, carbachol 100 μM, thapsigargin 5 μM or ionomycin 10 μm",inhibited strongly
same,Inhibition of the synergistic secretory response to VIP plus carbachol,T84 cells; same monolayers,parallel the inhibition of secretion promoted by Ca^++ agonists alone
same,Bumetanide-sensitive fractional component of 86Rb uptake,[3],88±3.2 % total uptake
same,Effect on time course of 125I efflux from monolayers treated with VIP,[4]; 33 μM clotrimazole,little or no effect
same,Effect of pretreatment on 125I loading of the cells,[4]; [7],did not alter
same,Rate constant for 125I efflux,"[4]; VIP, 33 μM clotrimazole, not treated 0.0645, n=2 in duplicate",0.0637 % uptake/minute
same,Reduction of rate constant for VIP-stimulated 86Rb efflux,basolateral K+ channel; 33 µM,87%
same,Rate constant for VIP-stimulated 86Rb efflux,"basolateral K+ channel; 33 μM clotrimazole, untreated 0.0465",0.0062 % uptake/minute
same,Rate constant for thapsigargin-stimulated 86Rb efflux,"basolateral K+ channel; 33 μM clotrimazole, untreated 0.048, n=2",0.011 % uptake/minute
same,Effect of pretreatment on 86Rb loading of the cells,basolateral K+ channel; [7],did not alter
same,Inhibition of baseline and Ca++ stimulated 86RB efflux,basolateral K+ channel; T84 cells with VIP or thapsigargin,significantly inhibited
same,Effect on forskolin- or thapsigargin-stimulated Cl- conductances,[5],no detectable effect
same,Inhibition of time course of K+ transport after forskolin and carbachol,basolateral K+ channels; [6],significantly inhibited
Clc1ccc(COC(Cn2ccnc2)c2ccc(Cl)cc2Cl)cc1 (stereo not shown) [econazole],Inhibition of cAMP and Ca++ elicited chloride secretion,T84 cells; T84 cells,effective at inhibiting chloride secretion
CC(=O)N1CCN(c2ccc(OCC3COC(Cn4ccnc4)(c4ccc(Cl)cc4Cl)O3)cc2)CC1 (stereo not shown) [ketoconazole],Inhibition of cAMP and Ca++ elicited chloride secretion,T84 cells; T84 cells,effective at inhibiting chloride secretion
Clc1ccc(COC(Cn2ccnc2)c2ccc(Cl)cc2Cl)c(Cl)c1 (stereo not shown) [miconazole],Inhibition of cAMP and Ca++ elicited chloride secretion,T84 cells; T84 cells,effective at inhibiting chloride secretion
charybdotoxin,Inhibition of Cl- secretory response (Isc) to Ca++-dependent agonist carbachol,T84 cells,strongly inhibited
same,Inhibition of Cl- secretory response (Isc) to cAMP mediated agonist VIP,T84 cells,minimal affects
same,Effect on K+ transport induced by subsequent addition of forskolin,basolateral K+ channels; charybdotoxin 100 nM,no detectable effect
same,Inhibition of carbachol induced Ca++ IK,basolateral K+ channels; pretreatment with charybdotoxin 100 nM,50%
